From paper PMC6154995, “Heme-dependent Inactivation of 5-Aminolevulinate Synthase from Caulobacter crescentus” (Scientific Reports, 2018)

How the values were obtained:
Format in all cases: binding
[1] = target: T1, 5-aminolevulinate synthase (cALAS) (Caulobacter vibrioides, UniProt Q9A8J8, H340A); assay: apparent Kd from spectrophotometric titration; conditions: read-out: KdGly,app /
T1 construct: gene CC_1355; recombinant cALAS H340A, PLP form

[2] = target: T2, 5-aminolevulinate synthase (cALAS) (Caulobacter vibrioides, UniProt Q9A8J8, C398A/H340A); assay: apparent Kd from spectrophotometric titration; conditions: read-out: KdGly,app /
T2 construct: gene CC_1355; recombinant cALAS H340A/C398A, PLP form
T2 sequence (Q9A8J8 1-408 H340A/C398A): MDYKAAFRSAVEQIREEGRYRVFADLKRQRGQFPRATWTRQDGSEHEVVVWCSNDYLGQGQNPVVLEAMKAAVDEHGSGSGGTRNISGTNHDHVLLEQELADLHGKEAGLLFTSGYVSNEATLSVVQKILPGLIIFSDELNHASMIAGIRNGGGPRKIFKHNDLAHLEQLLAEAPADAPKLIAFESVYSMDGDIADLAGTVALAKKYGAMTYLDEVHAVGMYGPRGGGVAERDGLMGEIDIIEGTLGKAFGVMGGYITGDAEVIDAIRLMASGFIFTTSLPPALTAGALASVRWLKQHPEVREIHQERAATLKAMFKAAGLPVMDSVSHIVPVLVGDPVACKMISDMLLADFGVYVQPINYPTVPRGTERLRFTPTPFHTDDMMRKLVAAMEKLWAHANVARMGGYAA

[3] = target: T3, 5-aminolevulinate synthase (cALAS) (Caulobacter vibrioides, UniProt Q9A8J8, C398A); assay: apparent Kd from spectrophotometric titration; conditions: read-out: KdGly,app /
T3 construct: gene CC_1355; recombinant cALAS C398A, PLP form
T3 sequence (Q9A8J8 1-408 C398A): as the sequence (Q9A8J8 1-408 H340A/C398A) above, with A340H counted along it

[4] = target: T4, 5-aminolevulinate synthase (cALAS) (Caulobacter vibrioides, UniProt Q9A8J8); assay: UV/Vis spectrophotometric titration; design: gene CC_1355; recombinant full-length cALAS, PLP form
T4 sequence (Q9A8J8 1-408): as the sequence (Q9A8J8 1-408 H340A/C398A) above, with A340H, A398C counted along it

[5] = target: T5, 5-aminolevulinate synthase (cALAS) (Caulobacter vibrioides, UniProt Q9A8J8, D214A); assay: UV/Vis titration of apoenzyme with PLP
T5 construct: gene CC_1355; D214A apo-cALAS
T5 sequence (Q9A8J8 1-408 D214A): as the sequence (Q9A8J8 1-408 H340A/C398A) above, with D214A, A340H, A398C counted along it

[6] = target: T4, 5-aminolevulinate synthase (cALAS); assay: UV/Vis and CD at […] nm; HPLC of PLP from purified enzyme; design: gene CC_1355; recombinant full-length cALAS, C-terminal His6-tag

T1 sequence (Q9A8J8 1-408 H340A): as the sequence (Q9A8J8 1-408 H340A/C398A) above, with A398C counted along it

NCC(=O)O [glycine]
Kd [1]: 11.5 ± 1.17 mM | Kd [2]: 6.46 ± 1.5 mM | Kd [3]: 13.6 ± 3.1 mM | Kd [4]: 10.6 ± 1.35 mM

Cc1ncc(COP(=O)(O)O)c(C=O)c1O [pyridoxal 5′-phosphate]
UV/Vis titration of apoenzyme with PLP [5]: upon PLP titration, cALAS displayed spectral changes supporting internal Schiff-base formation between PLP and Lys248 | UV/Vis and CD at 424 nm; HPLC of PLP from purified enzyme [6]: a peak for PLP was observed for the PLP form of cALAS
